Data: patent publication US9944597B2, “Polysubstituted pyrroles having microtubule-disrupting, cytotoxic and antitumor activities and methods of use thereof” (THE BOARD OF REGENTS OF THE UNIVERSITY OF TEXAS SYSTEM, priority 2013, dated 2018)
Read-outs that look alike come from different tables or passages of the source.

Key:
A-10 cells = experiment: Cellular microtubule loss by indirect immunofluorescence; type: cell-based, rat; details: read-out: EC50 Values (nM) for Microtubule Loss in A-10 cells
Experimental: The effects of representative compounds on cellular microtubules were evaluated in A-10 (embryonic rat vascular smooth muscle cell line) cells using indirect immunofluorescence techniques as previously described (Tinley et al., Cancer Res. 63, 3211-20 (2003)). Cells were visualized using a Nikon Eclipse 80i fluorescence microscope and NIS Elements software. Changes in both interphase and mitotic microtubules were noted and photographed. The EC50 values, the concentration that causes approximately 50% loss of interphase microtubules was determined by evaluating a range of concentrations of each compound and the percent cellular microtubule depolymerization that was observed visually at each concentration was noted.
Microtubules were visualized by indirect immunofluorescence using a β-tubulin antibody, and the DNA was visualized with DAPI. A representative concentration response curve for NT-7-16 is also shown in FIG. 1 that was used to calculate its corresponding EC50 for microtubule loss. Concentration response curves for microtubule loss were plotted using data from at least three experiments for each compound and the corresponding EC50 values for microtubule loss are presented in Table 50.

[1] = system: MDA-MB-435 (human melanoma cancer cells); experiment: Antiproliferative SRB assay, MDA-MB-435; type: cell-based; details: read-out: MDA-MB-435 Anti-Proliferative Activity, IC50
Experimental: (§1) Cell Culture. Various representative cancer and other cell lines were sourced and grown as described previously [Mooberry, S. L., et al., Mol. Pharm. 72, 132-140 (2007)]. MDA-MB-435 (human melanoma cancer cells), and MDA-MB-231 (human breast cancer cells) were grown in IMEM Richter's Medium (Life Technologies, Grand Island, N.Y.) with 10% FBS (Hyclone, Logan, Utah) and 25 μg/mL gentamicin sulfate (Life Technologies). A-10 (embryonic rat vascular smooth muscle cells) and HeLa (human cervical cancer cells), SK-OV-3 (human ovarian cancer cells) and SK-OV-3-MDR-1-M6/6 (a clone of the SK-OV-3 that was generated from SK-OV-3 cells by adenovirus-mediated expression of MDR1) were grown in Basal Medium Eagle (BME, Sigma-Aldrich, St. Louis, Mo.) containing Earle's salts, 50 μg/ml gentamicin sulfate, and 10% FBS. HeLa cells (a single-cell clone derived from transduction of HeLa cells with wild-type (WT) βIII-tubulin) were grown in Dulbecco's Modified Eagle's Medium (DMEM, Life Technologies) containing 50 μg/mL gentamicin sulfate and 10% FBS.
(§2) Antiproliferative Effects. The pyrrole compounds were evaluated for their antiproliferative effects in a panel of cancer cell lines. Cells were plated into 96-well plates at predetermined densities and allowed to attach and proliferate for 24 hr, and then the compounds were added. After a 48 hr exposure to the compounds, the cells were fixed with trichloroacetic acid and cellular protein was determined using the sulforhodamine B (SRB) assay (Skehan et al., J. Natl. Cancer Inst. 82, 1107-12, (1990); Boyd and Paull Drug Devel. Res. 34, 91-109, (1995)). Concentration response curves were constructed, and the IC50 (the concentration required to inhibit proliferation by 50%) values were determined from the linear portions of the log concentration-response curves as described previously [Tinley, T. L., et al., Cancer Res. 63, 3211-3220, (2003)] as shown in Table 48.

[2] = system: HeLa (human cervical cancer cells); experiment: Antiproliferative SRB assay, HeLa; type: cell-based
Experimental: as §1, §2
(§3) First, drug resistance mediated by the expression of βIII tubulin was evaluated in an isogenic HeLa cell line pair. Expression of the βIII tubulin isotype is associated with clinical drug resistance to the taxanes in ovarian cancer, non small-cell lung cancer and breast cancer [Galmarini, C. M., et al., Clin. Cancer Res. 14, 4511-4516 (2008)]. Secondly, drug resistance mediated by the expression of the drug efflux pump protein, Pgp, was evaluated in the isogenic SK-OV-3 cell line pair. The expression of Pgp can lead to lower intracellular drug concentrations and diminished cytotoxic effects both in vitro and in vivo. All tubulin-binding anticancer drugs used currently in the clinic, except cabazitaxel, are substrates for Pgp, thus limiting their utility in drug resistant tumors [Penson, R. T., et al., Gynecol. Oncol. 93, 98-106 (2004)]. Differences in sensitivity between the parent and transformed cell line, indicative of resistance, was determined by calculating relative resistance (Rr) values in the two pairs of isogenic cell lines (dividing the IC50 of the expressing cell line by the IC50 of the parental cell line).

HeLa WT-β-III cells = experiment: Antiproliferative SRB assay, βIII-tubulin expressing HeLa; type: cell-based, human; details: for IC50: Table 49, βIII tubulin expressing line, 48 hr, SRB assay; for Rr (β-III): relative resistance: IC50 of expressing line divided by IC50 of parental HeLa
Experimental: as §1, §2, §3

[3] = biological target: T1, purified porcine brain tubulin (Sus scrofa, UniProt P02554); experiment: Inhibition of polymerization of purified tubulin (absorbance at 340 nm); type: biochemical
T1 construct: of Purified Porcine Brain Tubulin; from tissue; host or cells: porcine brain
T1 sequence (P02554 whole entry): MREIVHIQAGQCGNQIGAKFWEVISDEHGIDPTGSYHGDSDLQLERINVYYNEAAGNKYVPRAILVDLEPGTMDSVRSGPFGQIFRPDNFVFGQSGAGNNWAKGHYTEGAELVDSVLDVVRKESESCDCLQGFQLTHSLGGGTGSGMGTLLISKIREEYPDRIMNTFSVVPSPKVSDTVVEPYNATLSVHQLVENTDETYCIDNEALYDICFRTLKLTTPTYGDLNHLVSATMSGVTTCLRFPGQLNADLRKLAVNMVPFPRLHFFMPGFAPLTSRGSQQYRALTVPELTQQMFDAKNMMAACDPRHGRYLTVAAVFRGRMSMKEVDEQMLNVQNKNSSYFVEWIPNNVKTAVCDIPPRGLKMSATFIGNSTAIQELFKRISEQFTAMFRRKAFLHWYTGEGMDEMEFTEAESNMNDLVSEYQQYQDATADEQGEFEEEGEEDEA
T1 sequence (P02550 whole entry partner): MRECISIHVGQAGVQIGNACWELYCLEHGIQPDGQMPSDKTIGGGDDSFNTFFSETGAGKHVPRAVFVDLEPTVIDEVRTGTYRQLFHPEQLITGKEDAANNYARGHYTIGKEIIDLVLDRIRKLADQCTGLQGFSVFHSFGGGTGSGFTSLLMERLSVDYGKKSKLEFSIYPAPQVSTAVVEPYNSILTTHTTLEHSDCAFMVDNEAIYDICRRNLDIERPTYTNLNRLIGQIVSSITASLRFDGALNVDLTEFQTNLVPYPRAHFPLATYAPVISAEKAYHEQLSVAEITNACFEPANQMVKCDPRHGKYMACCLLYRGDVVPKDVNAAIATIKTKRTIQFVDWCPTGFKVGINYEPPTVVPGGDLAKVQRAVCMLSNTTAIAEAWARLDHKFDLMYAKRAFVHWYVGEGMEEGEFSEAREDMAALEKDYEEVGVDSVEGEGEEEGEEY

[4] = system: SK-OV-3 (human ovarian cancer cells); experiment: Antiproliferative SRB assay, SK-OV-3; type: cell-based
Experimental: as §1, §2
as §3, with “The expression of Pgp can lead to lower intracellular drug concentrations and diminished cytotoxic effects both in vitro and in vivo.” left out

SK-OV-3-MDR-1-6/6 cells = experiment: Antiproliferative SRB assay, Pgp expressing SK-OV-3; type: cell-based, human; details: for IC50: Table 49, Pgp expressing line, 48 hr, SRB assay; for Rr (Pgp): relative resistance: IC50 of expressing line divided by IC50 of parental SK-OV-3
Experimental: as §1, §2
as §3, with “The expression of Pgp can lead to lower intracellular drug concentrations and diminished cytotoxic effects both in vitro and in vivo.” left out

[5] = Rattus norvegicus, A10, Table 50, concentration causing approximately 50% loss of interphase microtubules
[6] = Homo sapiens, MDA-MB-435, Table 48, 48 hr exposure, SRB assay
[7] = Homo sapiens, MDA-MB-435, Table 52
[8] = Homo sapiens, HeLa, Table 48, 48 hr exposure, read-out: HeLa Anti-Proliferative Activity, IC50
[9] = Homo sapiens, HeLa, Table 49, parental line, 48 hr, read-out: HeLa IC50
[10] = Homo sapiens, SK-OV-3, Table 48, 48 hr exposure, read-out: SK-OV-3 Anti-Proliferative Activity, IC50
[11] = Homo sapiens, SK-OV-3, Table 49, parental line, 48 hr, read-out: SK-OV-3 IC50

| SMILES | Rr (β-III) (HeLa WT-β-III cells) | Rr (Pgp) (SK-OV-3-MDR-1-6/6 cells) | EC50 (A-10 cells; [5]) | IC50 [1, 6] | IC50 [1, 7] | IC50 [2, 8] | IC50 [2, 9] | IC50 (HeLa WT-β-III cells; Homo sapiens, HeLa) | IC50 [4, 10] | IC50 [4, 11] | melting point | IC50 (SK-OV-3-MDR-1-6/6 cells; Homo sapiens, SK-OV-3) | other results |
| --- | --- | --- | --- | --- | --- | --- | --- | --- | --- | --- | --- | --- | --- |
| CCOC(=O)c1[nH]c(C=NO)c(-c2ccc(OC)c(OC)c2OC)c1Br (mixture of isomers) [Example 10a, Cis/Trans-3-Bromo-4-(2,3,4-trimethoxyphenyl)-5-oximino-1H-pyrrole 2-carboxylic acid ethyl ester] | 0.9 | 1.2 | – | – | – | – | – | – | – | – | – | – | EC50 (A-10 cells; Table 50, concentration causing approximately 50% loss of interphase microtubules): 9.8 nM; EC50 (A-10 cells; Table 52): 8.9 nM; IC50 ([1]; Table 48, 48 hr exposure, SRB assay): 2.7 ± 0.2 nM; IC50 ([1]; Table 52): 2.7 ± 0.2 nM; IC50 ([2]; Table 48, 48 hr exposure, read-out: HeLa Anti-Proliferative Activity, IC50): 5 ± 0.3 nM; IC50 ([2]; Table 49, parental line, 48 hr, read-out: HeLa IC50): 5 ± 0.3 nM; IC50 (HeLa WT-β-III cells): 4.1 ± 1 nM; % Inhibition of Tubulin Polymerization ([3]; compound at 2 μM): 75%; IC50 ([4]; Table 48, 48 hr exposure, read-out: SK-OV-3 Anti-Proliferative Activity, IC50): 5.3 ± 0.2 nM; IC50 ([4]; Table 49, parental line, 48 hr, read-out: SK-OV-3 IC50): 5.3 ± 0.2 nM; IC50 (SK-OV-3-MDR-1-6/6 cells): 6.6 ± 1.2 nM |
| CCOC(=O)c1[nH]c(CN)c(-c2ccc(OC)c(OC)c2OC)c1Br [Example 13, 5-(Aminomethylene)-3-Bromo-4-(2,3,4-trimethoxyphenyl)-1H-pyrrole 2-carboxylic acid ethyl ester] | 0.8 | 1.0 | 36 nM | 15.8 ± 0.9 nM | 15.8 ± 0.9 nM | 19.5 ± 0.6 nM | 19.5 ± 0.6 nM | 15.6 ± 0.4 nM | 23.1 ± 1.8 nM | 23.1 ± 1.8 nM | 176 to 178 °C | 22.4 ± 0.9 nM | – |
| CCOC(=O)c1[nH]c(Br)c(-c2ccc(OC)c(OC)c2OC)c1Br [Example 22, 3,5-Dibromo-4-(2,3,4-trimethoxyphenyl)-1H-pyrrole-2-carboxylic acid ethyl ester] | 1.2 | 0.7 | 34.5 nM | 10.4 ± 0.5 nM | – | 12.9 ± 0.8 nM | 12.9 ± 0.8 nM | 15.7 ± 0.2 nM | 15.2 ± 0.8 nM | 15.2 ± 0.8 nM | – | 10.6 ± 0.3 nM | inhibition at 1 µM ([3]; compound at 1 μM): 53% |
| CCOC(=O)c1[nH]c(CN)c(-c2ccc(OC)c(OC)c2OC)c1Cl [Example 14] | 0.8 | 0.8 | 35 nM | 13 ± 0.4 nM | 13 ± 0.4 nM | 15 ± 0.5 nM | 15 ± 0.5 nM | 12.3 ± 0.3 nM | 27.8 ± 1.3 nM | 27.8 ± 1.3 nM | 143 to 145 °C | 23.6 ± 1 nM | – |
| CCCNC=C1NC(C(=O)OCC)C(Br)=C1c1ccc(OC)c(OC)c1OC (centres unmarked) [Example 17, 3-Bromo-5-(N-Propylaminomethylene)-4-(2,3,4-trimethoxyphenyl)-1H-pyrrole 2-carboxylic acid ethyl ester] | 0.8 | 1.2 | 4900 nM | 2630 nM | 2630 nM | 2450 nM | 2450 nM | 2010 nM | 3020 nM | 3020 nM | 143 to 145 °C | 3570 nM | – |
| CCOC(=O)c1[nH]c(C=O)c(-c2ccc(OC)c(OC)c2OC)c1I [Example 4, 3-Iodo-4-(2,3,4-trimethoxyphenyl)-5-formyl-1H-pyrrole 2-carboxylic acid ethyl ester] | 2.5 | 1.3 | 129 nM | 76 ± 0.6 nM | 76 ± 0.6 nM | 39.9 ± 3.1 nM | 39.9 ± 3.1 nM | 100 ± 2 nM | 66.9 ± 5.8 nM | 66.9 ± 5.8 nM | 126 to 128 °C | 87 ± 23.6 nM | – |
| CCOC(=O)c1[nH]c(Cl)c(-c2ccc(OC)c(OC)c2OC)c1Cl [Example 23, 3,5-Dichloro-4-(2,3,4-Trimethoxyphenyl)-1H-pyrrole-2-carboxylic acid ethyl ester] | 1.0 | 1.1 | 1060 nM | 116 ± 4.3 nM | – | 131 ± 8 nM | 131 ± 8 nM | 137 nM | 211 nM | 211 nM | 151 to 153 °C | 231 ± 118 nM | – |
| CCOC(=O)c1[nH]c(C=O)c(-c2ccc(OC)c(OC)c2OC)c1Cl [Example 3, 3-Chloro-4-(2,3,4-trimethoxyphenyl)-5-formyl-1H-pyrrole 2-carboxylic acid ethyl ester] | 2.4 | 1.1 | 107 nM | 64 ± 8.5 nM | 64 ± 8.5 nM | 43.5 ± 1.7 nM | 43.5 ± 1.7 nM | 106 ± 6.6 nM | 67.8 ± 16.2 nM | 67.8 ± 16.2 nM | 193 to 195 °C | 76 ± 22.9 nM | – |
| CCCNC=C1NC(C(=O)OCC)C(Cl)=C1c1ccc(OC)c(OC)c1OC (centres unmarked) [Example 18, 3-Chloro-5-(N-Propylaminomethylene)-4-(2,3,4-Trimethoxyphenyl)-1H-pyrrole 2-carboxylic acid ethyl ester] | 0.8 | 0.9 | 31 nM | 12.6 ± 0.4 nM | 12.6 ± 0.4 nM | 14.3 ± 0.8 nM | 14.3 ± 0.8 nM | 11.2 ± 0.4 nM | 20.7 ± 1.9 nM | 20.7 ± 1.9 nM | 166 to 168 °C | 19 ± 1 nM | – |
